The target of assay [1] is M. jannaschii Adriase^S1A. To be noted: MST, 25° C., 10 nM FITC peptide, three independent measurements.
Description: MST measurements were performed with a Monolith NT.115 (Nanotemper), using various MST power and laser intensity settings to test the general validity of the obtained data. The final results were obtained in three independent experiments and measured at a temperature of 25° C., using MST power 80% and laser intensity 40%.
In a second set of MST experiments, a more detailed analysis of the binding motif (FIG. 18A-F and table in FIG. 5B) was performed using synthetic peptides (Genscript) based on the M. jannaschii MtrA sequence. […] For the MST measurements, 10 nM of these peptides were mixed with a serial dilution of M. jannaschii Adriase^S1A and the experiment was otherwise performed as described for the M. jannaschii MtrA^Δ194-245-Adriase^S1A and the M. jannaschii MtrA^Δ174-245 Adriase^S1A interactions, above.
Another assay deals with M. mazei Adriase. The assay can be described thus: Ligation motif analysis with primary and secondary substrates. It counts as biochemical. Conditions: 25 μM substrates, 400× molar excess over Adriase, 50° C.

Chain of M. jannaschii Adriase^S1A (as listed by the source): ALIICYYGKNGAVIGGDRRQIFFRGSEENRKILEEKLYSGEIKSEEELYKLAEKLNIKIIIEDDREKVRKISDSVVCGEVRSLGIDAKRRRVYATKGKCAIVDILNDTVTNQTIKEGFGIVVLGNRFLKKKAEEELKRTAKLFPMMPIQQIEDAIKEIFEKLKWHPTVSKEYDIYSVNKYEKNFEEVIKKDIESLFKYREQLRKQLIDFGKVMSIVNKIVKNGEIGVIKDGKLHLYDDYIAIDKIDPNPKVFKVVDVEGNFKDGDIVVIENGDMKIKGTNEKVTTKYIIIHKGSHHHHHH

Turning to “KECLSKDPGAIDEDPFIIELKFITC [(5)KDPGA(10)]”, the KD result in assay [1] was “as tightly as M. jannaschii MtrA^Δ194-245”.

Regarding “PGAFDADP (Methanosarcina mazei Go1; M. mazei PGA(5); listed as Methanosarcina mazei) [M. mazei MtrA-derived secondary substrate peptide]”, in the assay on M. mazei Adriase, the “Adriase activity with substrate” value is “No Adriase activity”.

Values taken from US20260275319A1, “ARCHAEAL PEPTIDE RECOMBINASE – A NOVEL PEPTIDE LIGATING ENZYME” (MAX-PLANCK-GESELLSCHAFT ZUR FÖRDERUNG DER WISSENSCHAFTEN …, priority 2019, published 2026).
